We go through 32 compounds from patent US11407715B2, “Substituted indoline derivatives as dengue viral replication inhibitors” (JANSSEN PHARMACEUTICALS, INC., priority 2017, dated 2022).

Some results are limits rather than exact numbers.

In one series the test system is DENV-2 16681 strain. As to the kind of experiment: microbe, parasite or virus in culture. To be noted: for EC50: DENV-2 16681 eGFP, Vero cells, MOI 0.5, 3 days; for SI: SI=CC50/EC50, DENV-2 antiviral assay. The class given is cell-based, Dengue virus.
A short description of another series: in vitro. To be noted: African green monkey.
The next series concerns Vero cells. To be noted: African green monkey.
Where [1] appears, read: Dengue virus, DENV2, Vero, 72 h.

As usually defined, the EC50 is the concentration at which the effect is half-maximal. `COc1cc(NC(C(=O)N2CCc3ccc(OC(F)(F)F)cc32)c2ccc(Cl)cc2)cc(OCCC(C)C(=O)O)c1` (racemic) [Compound 1, 4-(3-((1-(4-chlorophenyl)-2-oxo-2-(6-(trifluoromethoxy)indolin-1-yl)ethyl)amino)-5-methoxyphenoxy)-2-methylbutanoic acid]: in the series with DENV-2 16681 strain (setting [1]), the EC50 was determined as 0.5 nM. In the series on DENV-2 16681 strain, this compound returned an SI of 24400. Besides, the CC50 in the series “in vitro” is 11 µM.

For `COc1cc(NC(C(=O)N2CCc3ccc(OC(F)(F)F)cc32)c2ccc(Cl)cc2)cc(OCCC(C)(C)C(=O)O)c1` (racemic) [Compound 2, 4-(3-((1-(4-chlorophenyl)-2-oxo-2-(6-(trifluoromethoxy)indolin-1-yl)ethyl)amino)-5-methoxyphenoxy)-2,2-dimethylbutanoic acid], in the series on DENV-2 16681 strain (setting [1]), the EC50 was found to be 0.62 nM. Moreover, the SI in the series with DENV-2 16681 strain stood at 19200. Further, in “in vitro”, the CC50 was found to be 12 µM.

On to `COc1cc(NC(C(=O)N2CCc3ccc(OC(F)(F)F)cc32)c2ccc(Cl)cc2)cc(OCCC(C)C(=O)O)c1` (single isomer, unassigned) [Compound 1A], for which, in the series with DENV-2 16681 strain, the EC50 was 18 nM and the SI was found to be 523. Besides, the CC50 in the series on Vero cells was found to be 9.6 µM.

In the series on DENV-2 16681 strain, `COc1cc(NC(C(=O)N2CCc3ccc(OC(F)(F)F)cc32)c2ccc(Cl)cc2)cc(OCCC(C)C(=O)O)c1` (single isomer, unassigned) [Compound 1B] displayed an EC50 of 18 nM and an SI of 579. Also, the CC50 with Vero cells is 10 µM.

In the series on DENV-2 16681 strain, `COc1cc(NC(C(=O)N2CCc3ccc(OC(F)(F)F)cc32)c2ccc(Cl)cc2)cc(OCCC(C)(C)C(=O)O)c1` (single isomer, unassigned) [Compound 2B] came in with an EC50 of 19 nM and an SI of 565. The CC50 in the series on Vero cells was found to be 11 µM.

In the series with DENV-2 16681 strain, `COc1cc(NC(C(=O)N2CCc3ccc(OC(F)(F)F)cc32)c2ccc(Cl)cc2)cc(OCC(C)CC(=O)O)c1` (single isomer, unassigned) [Compound 4B] came in with an EC50 of 11 nM and an SI of 935. This compound also had a CC50 in the series on Vero cells of 10 µM.

As to `COc1cc(NC(C(=O)N2CCc3ccc(OC(F)(F)F)cc32)c2ccc(Cl)cc2)cc(OCC2(CC(=O)O)CC2)c1` (single isomer, unassigned) [Compound 5B], in the series on DENV-2 16681 strain, the EC50 turned out to be 11 nM and the SI is 921. For the same compound, the CC50 with Vero cells came out at 10 µM.

In the series on DENV-2 16681 strain, `COc1cc(CCCCC(=O)O)cc(NC(C(=O)N2CCc3ccc(OC(F)(F)F)cc32)c2ccc(Cl)cc2)c1` (single isomer, unassigned) [Compound 14B] returned an EC50 of 60 nM and an SI of 156. Besides, in the series on Vero cells, the CC50 worked out at 9.3 µM.

In the series with DENV-2 16681 strain, `COc1cc(NC(C(=O)N2CCc3ccc(OC(F)(F)F)cc32)c2ccc(Cl)cc2OC)cc(OCCC(C)C(=O)O)c1` (single isomer, unassigned) [Compound 17B] showed an EC50 of 180 nM and an SI of 59. In the series with Vero cells, this compound yielded a CC50 of 11 µM.

Regarding `COc1cc(NC(C(=O)N2CCc3cc(OC)c(C(F)(F)F)cc32)c2ccc(Cl)cc2)cc(OCCC(C)C(=O)O)c1` (single isomer, unassigned) [Compound 20B], in the series with DENV-2 16681 strain, a half-maximal effect (EC50) was put at 180 nM and the SI is reported as 69. Further, the CC50 with Vero cells stood at 12 µM.

In the series with DENV-2 16681 strain, `COc1cc(NC(C(=O)N2CCc3cc(F)c(OC(F)(F)F)cc32)c2ccc(Cl)cc2)cc(OCC2CC2C(=O)O)c1` (single isomer, unassigned) [Compound 26B, (1 S*,2S*)-2-((3-((1-(4-chlorophenyl)-2-(5-fluoro-6-(trifluoromethoxy)indolin-1-yl)-2-oxoethyl)amino)-5-methoxyphenoxy)methyl)-cyclopropanecarboxylic Acid] gave an EC50 of 0.94 nM and an SI of 10600. In the series with Vero cells, this compound returned a CC50 of 12 µM.

In the series on DENV-2 16681 strain, `COc1cc(NC(C(=O)N2CCc3cc(F)c(OC(F)(F)F)cc32)c2ccc(Cl)cc2)cc(OC2CC(C(=O)O)C2)c1` (single isomer, unassigned) [Compound 27A] returned an EC50 of 0.41 nM and an SI of 14300. In addition, the CC50 with Vero cells was 11 µM.

In the series on DENV-2 16681 strain, `COc1cc(NC(C(=O)N2CCc3cc(OC)c(Cl)cc32)c2ccc(Cl)cc2)cc(OC2CC(C(=O)O)C2)c1` (single isomer, unassigned) [Compound 32A] yielded a 50% effective concentration (EC50) of 63 nM and an SI of 205. Moreover, the CC50 with Vero cells is 13 µM.

In the series with DENV-2 16681 strain, `COc1cc(NC2CC(C(=O)O)C2)cc(NC(C(=O)N2CCc3ccc(OC(F)(F)F)cc32)c2ccc(Cl)cc2)c1` (single isomer, unassigned) [Compound 33B] gave an EC50 of 7.9 nM and an SI of 1760. In the series on Vero cells, this compound had a CC50 of 14 µM.

On to `COc1cc(NC(C(=O)N2CCc3ccc(OC(F)(F)F)cc32)c2ccc(Cl)cc2)cc(OCC2CC2C(=O)O)c1` (stereo not drawn) [Compound 6BA], for which, in the series with DENV-2 16681 strain, the EC50 is 12 nM and the SI was 703. In the series with Vero cells, this compound yielded a CC50 of 8.7 µM.

In the series on DENV-2 16681 strain, `COc1cc(NC(C(=O)N2CCc3ccc(OC(F)(F)F)cc32)c2ccc(Cl)cc2)cc(OC2CC(C(=O)O)C2)c1` (stereo not drawn) [Compound 7A] yielded an EC50 of 9.1 nM and an SI of 1130. This compound also had a CC50 in the series with Vero cells of 10 µM.

In the series on DENV-2 16681 strain, `COc1cc(NC(C(=O)N2CCc3ccc(OC(F)(F)F)cc32)c2ccc(Cl)cc2)cc(OC2CC(C(=O)O)C2)c1` (stereo not drawn) [Compound 8, (1s,3s)-3-(3-((1-(4-chlorophenyl)-2-oxo-2-(6-(trifluoromethoxy)indolin-1-yl)ethyl)amino)-5-methoxyphenoxy)cyclobutanecarboxylic acid] gave an EC50 of 0.048 nM and an SI of over 126733. Further, the CC50 with Vero cells was found to be 13 µM.

As for `COc1cc(NC(C(=O)N2CCc3ccc(OC(F)(F)F)cc32)c2ccc(Cl)cc2)cc(OC2CC(C(=O)O)C2)c1` (stereo not drawn) [Compound 8A], in the series on DENV-2 16681 strain, the concentration giving a half-maximal response (EC50) stood at 0.86 nM and the SI is on record as 11600. The compound also gave a CC50 with Vero cells of 12 µM.

In the series on DENV-2 16681 strain, `COc1cc(NC(C(=O)N2CCc3ccc(OC(F)(F)F)cc32)c2ccc(Cl)cc2)cc(OCC2CC(C(=O)O)C2)c1` (stereo not drawn) [Compound 10A] registered an EC50 of 2.7 nM and an SI of 3790. Also, the CC50 in the series on Vero cells came to 10 µM.

As for `COc1cc(NC(C(=O)N2CCc3ccc(OC(F)(F)F)cc32)c2ccc(Cl)cc2)cc(OCC2CC(C(=O)O)C2)c1` (stereo not drawn) [Compound 11, (1r,3r)-3-((3-((1-(4-chlorophenyl)-2-oxo-2-(6-(trifluoromethoxy)indolin-1-yl)ethyl)amino)-5-methoxyphenoxy)methyl)cyclobutanecarboxylic acid], in the series with DENV-2 16681 strain, the EC50 stood at 0.13 nM and the SI is 97100. In the series on Vero cells, this compound gave a CC50 of 12 µM.

For `COc1cc(NC(C(=O)N2CCc3ccc(OC(F)(F)F)cc32)c2ccc(Cl)cc2)cc(OCC2CC(C(=O)O)C2)c1` (stereo not drawn) [Compound 11A], in the series on DENV-2 16681 strain, the EC50 is 3.8 nM and the SI is on record as 2710. Besides, in the series with Vero cells, the CC50 worked out at 10 µM.

In the series with DENV-2 16681 strain, `COc1cc(NC(C(=O)N2CCc3ccc(OC(F)(F)F)cc32)c2ccc(Cl)cc2OC)cc(OCC2CC2C(=O)O)c1` (stereo not drawn) [Compound 19BA] gave an EC50 of 16 nM and an SI of 707. The CC50 in the series with Vero cells was determined as 11 µM.

In the series with DENV-2 16681 strain, `COc1cc(NC(C(=O)N2CCc3cc(OC)c(C(F)(F)F)cc32)c2ccc(Cl)cc2)cc(OCC2CC2C(=O)O)c1` (stereo not drawn) [Compound 22BA] returned an EC50 of 15 nM and an SI of 786. This compound also registered a CC50 in the series on Vero cells of 12 µM.

For `COc1cc(NC(C(=O)N2CCc3cc(OC)c(C(F)(F)F)cc32)c2ccc(Cl)cc2)cc(OCC2CC(C(=O)O)C2)c1` (stereo not drawn) [Compound 24A], in the series on DENV-2 16681 strain, a half-maximal response (EC50) required 24 nM and the SI is recorded as 469. In the series with Vero cells, this compound had a CC50 of 11 µM.

In the series with DENV-2 16681 strain, `COc1cc(NC(C(=O)N2CCc3cc(OC)c(C(F)(F)F)cc32)c2ccc(Cl)cc2)cc(OCC2CC(C(=O)O)C2)c1` (stereo not drawn) [Compound 25, (1r,3r)-3-((3-((1-(4-chlorophenyl)-2-(5-methoxy-6-(trifluoromethyl)indolin-1-yl)-2-oxoethyl)amino)-5-methoxyphenoxy)methyl)-cyclobutanecarboxylic Acid] returned an EC50 of 0.45 nM and an SI of 26800. The compound also came in with a CC50 in the series on Vero cells of 12 µM.

As for `COc1cc(NC(C(=O)N2CCc3cc(OC)c(C(F)(F)F)cc32)c2ccc(Cl)cc2)cc(OCC2CC(C(=O)O)C2)c1` (stereo not drawn) [Compound 25A], in the series with DENV-2 16681 strain, the EC50 worked out at 7.1 nM and the SI is on record as 1640. This compound also yielded a CC50 in the series on Vero cells of 12 µM.

In the series on DENV-2 16681 strain, `COc1cc(NC(C(=O)N2CCc3ccc(OC(F)(F)F)cc32)c2ccc(Cl)cc2)cc(OCC2(F)CC2C(=O)O)c1` (stereo not drawn) [Compound 28AA] displayed an EC50 of 330 nM and an SI of 34. The CC50 in the series on Vero cells came out at 11 µM.

For the compound `COc1cc(NC(C(=O)N2CCc3ccc(OC(F)(F)F)cc32)c2ccc(Cl)cc2)cc(OCC2(F)CC2C(=O)O)c1` (stereo not drawn) [Compound 28BA], in the series with DENV-2 16681 strain, the EC50 turned out to be 17 nM and the SI is on record as 574. The compound also registered a CC50 with Vero cells of 10 µM.

In the series with DENV-2 16681 strain, `COc1cc(NC(C(=O)N2CCc3ccc(OC(F)(F)F)cc32)c2ccc(Cl)cc2)cc(OCC2(F)CC2C(=O)O)c1` (stereo not drawn) [Compound 29AA] registered an EC50 of 61 nM and an SI of 151. In addition, the CC50 with Vero cells turned out to be 9.2 µM.

`COc1cc(NC(C(=O)N2CCc3ccc(OC(F)(F)F)cc32)c2ccc(Cl)cc2)cc(OCC2(F)CC2C(=O)O)c1` (stereo not drawn) [Compound 29BA]: in the series on DENV-2 16681 strain, the EC50 was 3.4 nM and the SI was 2890. In the series on Vero cells, the CC50 was determined as 9.8 µM.

For `COc1cc(NC(C(=O)N2CCc3cc(F)c(OC(F)(F)F)cc32)c2ccc(Cl)cc2)cc(OCC2CC(C(=O)O)C2)c1` (stereo not drawn) [Compound 30B], in the series with DENV-2 16681 strain, the EC50 came to 5.9 nM and the SI is recorded as 1800. In the series with Vero cells, this compound displayed a CC50 of 11 µM.

In the series with DENV-2 16681 strain, `COc1cc(NC(C(=O)N2CCc3cc(F)c(OC(F)(F)F)cc32)c2ccc(Cl)cc2)cc(OCC2CC(C(=O)O)C2)c1` (stereo not drawn) [Compound 31B] yielded an EC50 of 2.6 nM and an SI of 4400. The same compound had a CC50 in the series with Vero cells of 12 µM.
